# Test results: PubChem BioAssay AID1963875 (Molecular Pharmacology Branch, DTP, NCI, 2024)
# Tested on: KRAS-mutant PDC complex spheroid viability
# Assay: Anticancer human tumor 186277-243-T-J2-PDC patient-derived colon adenocarcinoma cell line growth inhibition [KRAS2]
# Settings: for IC50: curve of first compound; for viability, T/C: stronger effect = lower value
# How it was run: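 Combination screen of spheroid viability in tumor-cell co-cultures with endothelial (HUVEC) and mesenchymal stem cell stroma. Each agent was tested in half-log dilutions, topping at clinical Cmax or at 10 microM without a known Cmax.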
# [1] = second compound 0.1 µM, first compound 0.0316 µM
# [2] = second compound 0.1 µM, first compound 0.1 µM
# [3] = second compound 0.1 µM, first compound 0.316 µM
# [4] = second compound 0.1 µM, first compound 1 µM
# [5] = second compound 0.1 µM, first compound 3.16 µM
# [6] = second compound 0.1 µM, first compound 10 µM
# [7] = second compound 0.316 µM, first compound 0.0316 µM
# [8] = second compound 0.316 µM, first compound 0.1 µM
# [9] = second compound 0.316 µM, first compound 0.316 µM
# [10] = second compound 0.316 µM, first compound 1 µM
# [11] = second compound 0.316 µM, first compound 3.16 µM
# [12] = second compound 0.316 µM, first compound 10 µM
# [13] = second compound 1 µM, first compound 0.0316 µM
# [14] = second compound 1 µM, first compound 0.1 µM
# [15] = second compound 1 µM, first compound 0.316 µM
# [16] = second compound 1 µM, first compound 1 µM
# [17] = second compound 1 µM, first compound 3.16 µM
# [18] = second compound 1 µM, first compound 10 µM
# [19] = second compound 3.16 µM, first compound 0.0316 µM
# [20] = second compound 3.16 µM, first compound 0.1 µM
# [21] = second compound 3.16 µM, first compound 0.316 µM
# [22] = second compound 3.16 µM, first compound 1 µM
# [23] = second compound 3.16 µM, first compound 3.16 µM
# [24] = second compound 3.16 µM, first compound 10 µM
# [25] = second compound 10 µM, first compound 0.0316 µM
# [26] = second compound 10 µM, first compound 0.1 µM
# [27] = second compound 10 µM, first compound 0.316 µM
# [28] = second compound 10 µM, first compound 1 µM
# [29] = second compound 10 µM, first compound 3.16 µM
# [30] = second compound 10 µM, first compound 10 µM
# 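Throughout, for viability, T/C: viability read after seven days of compound exposure; 100% = DMSO vehicle-treated spheroids so lower means less viable.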
Structure (SMILES),IC50 (second compound 0.1 µM) [nM],IC50 (second compound 0.316 µM) [nM],IC50 (second compound 1 µM) [nM],IC50 (second compound 3.16 µM) [nM],IC50 (second compound 10 µM) [nM],"viability, T/C [1] [%]","viability, T/C [2] [%]","viability, T/C [3] [%]","viability, T/C [4] [%]","viability, T/C [5] [%]","viability, T/C [6] [%]","viability, T/C [7] [%]","viability, T/C [8] [%]","viability, T/C [9] [%]","viability, T/C [10] [%]","viability, T/C [11] [%]","viability, T/C [12] [%]","viability, T/C [13] [%]","viability, T/C [14] [%]","viability, T/C [15] [%]",also measured
COC(=O)c1ccc2c(C(=Nc3ccc(N(C)C(=O)CN4CCN(C)CC4)cc3)c3ccccc3)c(O)[nH]c2c1 + COc1cc2nc(C)nc(NC(C)c3cc(N)cc(C(F)(F)F)c3)c2cc1OC1CCOC1,2190,2210,1970,1450,463,99,108,106,119,22.8,13.4,87.2,102,100,104,28.3,10.9,95.6,98.6,106,"viability, T/C [16]: 115%; viability, T/C [17]: 12.7%; viability, T/C [18]: 8.29%; viability, T/C [19]: 96.6%; viability, T/C [20]: 94%; viability, T/C [21]: 114%; viability, T/C [22]: 72%; viability, T/C [23]: 5.65%; viability, T/C [24]: 0.14%; viability, T/C [25]: 74.5%; viability, T/C [26]: 81.5%; viability, T/C [27]: 62.8%; viability, T/C [28]: 22.1%; viability, T/C [29]: 0.18%; viability, T/C [30]: 0.19%"
COc1cc(Nc2ncc3c(n2)-c2ccc(Cl)cc2C(c2c(F)cccc2OC)=NC3)ccc1C(=O)O + COc1cc2nc(C)nc(NC(C)c3cc(N)cc(C(F)(F)F)c3)c2cc1OC1CCOC1,< 31.6,< 31.6,< 31.6,< 31.6,< 31.6,30.3,29,26.4,29.2,38.8,38.7,26.8,27.7,26.1,27.4,33.7,36.6,26.8,24.7,23.5,"viability, T/C [16]: 25.7%; viability, T/C [17]: 31.3%; viability, T/C [18]: 34.2%; viability, T/C [19]: 22.2%; viability, T/C [20]: 22.6%; viability, T/C [21]: 22.1%; viability, T/C [22]: 20.6%; viability, T/C [23]: 24.3%; viability, T/C [24]: 22.4%; viability, T/C [25]: 14.1%; viability, T/C [26]: 17.8%; viability, T/C [27]: 10.2%; viability, T/C [28]: 7.56%; viability, T/C [29]: 14%; viability, T/C [30]: 7.41%"
COc1cc2nccc(Oc3ccc(NC(=O)C4(C(=O)Nc5ccc(F)cc5)CC4)cc3)c2cc1OC + COc1cc2nc(C)nc(NC(C)c3cc(N)cc(C(F)(F)F)c3)c2cc1OC1CCOC1,882,866,779,726,187,98.2,112,114,12.5,15.8,101,105,102,97.8,13.9,13.5,102,108,108,82.2,"viability, T/C [16]: 11.3%; viability, T/C [17]: 10.7%; viability, T/C [18]: 101%; viability, T/C [19]: 114%; viability, T/C [20]: 114%; viability, T/C [21]: 80.7%; viability, T/C [22]: 9.28%; viability, T/C [23]: 1.53%; viability, T/C [24]: 104%; viability, T/C [25]: 92.2%; viability, T/C [26]: 66.9%; viability, T/C [27]: 39.4%; viability, T/C [28]: 1.55%; viability, T/C [29]: 0.17%; viability, T/C [30]: 89%"
